Test results: article PMC7310833, “Structural and biochemical characterization of a novel thermophilic Coh01147 protease” (PLoS ONE, 2020)

Target: T1, protease 1147 (Cohnella sp. A01, UniProt A0A5J6KIY6)
T1 construct: full length, 169 residues, no signal peptide, C-terminal His-tag (pET26b(+)), E. coli BL21 (DE3), about 18 kDa on SDS-PAGE; N-terminus from primer MKKVAFL; Ni-NTA
T1 sequence (A0A5J6KIY6 1-169): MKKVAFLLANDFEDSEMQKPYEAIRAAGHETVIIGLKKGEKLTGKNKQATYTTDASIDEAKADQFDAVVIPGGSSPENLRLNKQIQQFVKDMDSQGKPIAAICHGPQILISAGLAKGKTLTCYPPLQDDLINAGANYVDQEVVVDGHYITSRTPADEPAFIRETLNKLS
Assay: casein hydrolysis, TCA-soluble A280
Format: biochemical
Conditions: […] and […] inhibitor; casein substrate; table prints NA, text says completely inhibited; […] C, pH […]

Question: Which “relative activity (%)” value does the source give for `CC(C)C[C@H](NC(=O)[C@@H]1O[C@H]1C(=O)O)C(=O)NCCCCN=C(N)N` [E-64, Trans-Epoxysuccinyl-L-leucylamido (4-guanidino) butane] here?
Answer: completely inhibited by IAM, E-64, and leupeptin, which are the typical cysteine protease inhibitors
